{"source": "ChEMBL document CHEMBL2010724", "about": "“Oroxylin A analogs exhibited strong inhibitory activities against iNOS-mediated nitric oxide (NO) production” (Bioorg Med Chem Lett, 2012)", "key": {"[1]": {"target": "T1, Nitric oxide synthase, inducible (Mus musculus) (UniProt P29477)", "T1 sequence (whole entry)": "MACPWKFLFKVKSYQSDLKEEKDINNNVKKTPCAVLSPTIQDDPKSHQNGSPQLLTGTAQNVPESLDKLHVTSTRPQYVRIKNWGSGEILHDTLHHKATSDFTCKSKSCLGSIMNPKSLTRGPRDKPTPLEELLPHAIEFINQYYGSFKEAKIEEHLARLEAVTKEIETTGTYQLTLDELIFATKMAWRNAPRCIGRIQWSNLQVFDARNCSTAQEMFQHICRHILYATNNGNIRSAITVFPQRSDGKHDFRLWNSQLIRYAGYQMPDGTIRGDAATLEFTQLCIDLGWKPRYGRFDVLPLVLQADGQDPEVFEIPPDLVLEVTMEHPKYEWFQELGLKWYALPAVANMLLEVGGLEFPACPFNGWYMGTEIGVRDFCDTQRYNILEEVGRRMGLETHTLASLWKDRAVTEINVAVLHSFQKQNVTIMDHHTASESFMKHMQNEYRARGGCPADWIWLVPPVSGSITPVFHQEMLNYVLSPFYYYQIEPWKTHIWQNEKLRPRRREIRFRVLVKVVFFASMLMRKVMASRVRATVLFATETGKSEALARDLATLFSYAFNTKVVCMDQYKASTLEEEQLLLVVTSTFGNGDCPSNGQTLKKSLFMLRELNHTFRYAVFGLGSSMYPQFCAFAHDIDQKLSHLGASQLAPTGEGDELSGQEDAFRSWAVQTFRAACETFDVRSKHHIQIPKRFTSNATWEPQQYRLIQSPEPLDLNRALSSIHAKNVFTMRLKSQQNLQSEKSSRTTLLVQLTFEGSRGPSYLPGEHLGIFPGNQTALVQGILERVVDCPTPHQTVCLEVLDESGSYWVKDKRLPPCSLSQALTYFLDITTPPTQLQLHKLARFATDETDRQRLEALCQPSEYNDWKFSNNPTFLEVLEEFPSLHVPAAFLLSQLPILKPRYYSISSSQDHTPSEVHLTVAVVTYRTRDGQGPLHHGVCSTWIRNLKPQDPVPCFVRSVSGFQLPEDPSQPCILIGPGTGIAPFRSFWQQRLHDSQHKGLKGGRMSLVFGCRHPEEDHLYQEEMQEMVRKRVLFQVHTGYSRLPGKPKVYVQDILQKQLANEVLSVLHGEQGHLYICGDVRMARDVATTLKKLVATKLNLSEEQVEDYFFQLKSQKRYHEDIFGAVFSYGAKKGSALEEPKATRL", "test": "Inhibition of iNOS-induced NO production in LPS-stimulated mouse BV2 cells at 10 uM after 24 hrs", "format": "cell-based", "settings": "BV-2"}, "[2]": {"target": "T2, Nitric oxide synthase, inducible (Mus musculus, UniProt P29477)", "T2 sequence (P29477 whole entry)": "T1 sequence (whole entry)", "test": "Inhibition of iNOS-induced NO production in LPS-stimulated mouse BV2 cells after 24 hrs", "format": "cell-based", "settings": "bv-2"}}, "note": "pIC50: −log10 of the molar value.", "data": [{"smiles": "COc1cc(-c2cc(=O)c3c(O)c(OC)c(O)cc3o2)ccc1O", "values": [{"measurement": "inhibition", "setting": "[1]", "value": 8.2, "unit": "%"}]}, {"smiles": "COc1c(O)cc2oc(-c3ccc(F)cc3)cc(=O)c2c1O", "values": [{"measurement": "pIC50", "setting": "[2]", "value": 5.07}, {"measurement": "inhibition", "setting": "[1]", "value": 40.8, "unit": "%"}]}, {"smiles": "COc1c(O)cc2oc(-c3ccc([N+](=O)[O-])cc3)cc(=O)c2c1O", "values": [{"measurement": "pIC50", "setting": "[2]", "value": 5.33}, {"measurement": "inhibition", "setting": "[1]", "value": 45.7, "unit": "%"}]}, {"smiles": "COc1c(O)cc(O)c2c(=O)cc(-c3ccccc3)oc12", "note": "[WOGONIN]", "values": [{"measurement": "pIC50", "setting": "[2]", "value": 5.11}, {"measurement": "inhibition", "setting": "[1]", "value": 40, "unit": "%"}]}, {"smiles": "COc1c(O)cc2oc(-c3ccccc3)cc(=O)c2c1O", "values": [{"measurement": "inhibition", "setting": "[1]", "value": 26, "unit": "%"}]}, {"smiles": "COc1c(O)cc2oc(-c3cccc(F)c3)cc(=O)c2c1O", "values": [{"measurement": "pIC50", "setting": "[2]", "value": 4.94}, {"measurement": "inhibition", "setting": "[1]", "value": 39.9, "unit": "%"}]}, {"smiles": "COc1c(O)cc2oc(-c3ccc(F)cc3F)cc(=O)c2c1O", "values": [{"measurement": "inhibition", "setting": "[1]", "value": 10.6, "unit": "%"}]}, {"smiles": "COc1c(O)cc2oc(-c3ccccc3F)cc(=O)c2c1O", "values": [{"measurement": "inhibition", "setting": "[1]", "value": 14.2, "unit": "%"}]}, {"smiles": "COc1c(O)cc2oc(-c3cccc(Br)c3)cc(=O)c2c1O", "values": [{"measurement": "pIC50", "setting": "[2]", "value": 4.96}, {"measurement": "inhibition", "setting": "[1]", "value": 45.2, "unit": "%"}]}, {"smiles": "COc1c(O)cc2oc(-c3ccc(Cl)c(Cl)c3)cc(=O)c2c1O", "values": [{"measurement": "inhibition", "setting": "[1]", "value": 13.1, "unit": "%"}]}]}
